Ends that are not written are not given here.
Experiments:
MRSA USA300 cells = assay: Transmission electron microscopy of treated cells; assay type: cell-based, Staphylococcus aureus; conditions: 3× MIC for 1 h
Excerpt: Effects of AMPs on bacterial cell morphology was investigated using transmission electron microscopy as described by Huws et al.[49] […] Cells were post-fixed with 1% osmium tetroxide (w/v), stained with 2% (w/v) uranyl acetate and Reynold’s lead citrate and observed using a JEOL JEM1010 transmission electron microscope (JEOL Ltd, Tokyo, Japan) at 80 kV.

MRSA ATCC 33591 = assay: Anti-biofilm activity, 96-well crystal violet model; assay type: cell-based, Staphylococcus aureus; conditions: 0.25× MIC (data not shown)
Description: The effectiveness of Lynronne-1, Lynronne-2, and Lynronne-3 to prevent (a) biofilm attachment and (b) disrupt established biofilms was measured using a 96-well biofilm model.[50] […] The biofilms were washed in PBS to remove planktonic cells, fixed with methanol, stained with 0.5% (w/v) crystal violet and re-solubilized with 33% (v/v) acetic acid. The optical density of biofilms was measured at 570 nm.

[1] = Peptide-lipid interaction, lipid monolayer (Langmuir balance); assay type: binding, Staphylococcus aureus; conditions: initial surface pressure 30 ± 0.5 mN/m; compared to Lynronne-2
Description: Membrane permeabilsation was evaluated using propidium iodide assay as previously explained,[43] with CTAB as positive control. Peptide–lipid interaction was measured using reconstituted lipid monolayer.[44] Total lipid extract from overnight liquid cultures of MRSA USA300 was obtained by Folch extraction, resuspended in chloroform and stored at −20 °C under nitrogen conditions. Pure bacterial and eukaryotic lipids, POPG, cardiolipin, LTA, POPE and POPC (Avanti Polar Lipid USA) were reconstituted in chloroform at 1 mg/ml and stored at −20 °C under nitrogen. […] The variation of the surface pressure caused by peptide injection was then continuously monitored using a fully automated microtensiometer (µTROUGH SX, Kibron Inc., Helsinki, Finland) until reaching equilibrium (maximal surface pressure increase usually obtained after 15–25 min). Critical pressure of insertion of each peptide in the different lipids was also determined by changing the initial pressure of lipid monolayer (from 10 and 30 mN/m) and measuring the variation of pressure caused by the injection of peptide (at 1 µg/ml final concentration). All experiments were carried out in a controlled atmosphere at 20 °C ± 1 °C and data were analyzed using the Filmware 2.5 program (Kibron Inc., Helsinki, Finland). […]

Row | Substance | Changes in cell morphology (TEM) (MRSA USA300 cells) | Biofilm attachment (MRSA ATCC 33591) | Insertion ability into MRSA lipid extract monolayer [1]
1 | HLRRINKLLTRIGLYRHAFG-NH2 [Lynronne-2] | very little morphology changes | effective | 
2 | LPRRNRWSKIWKKVVTVFS-NH2 [Lynronne-1] |  |  | higher insertion ability
3 | NRFTARFRRTPWRLCLQFRQ-NH2 [Lynronne-3] |  |  | higher insertion ability

Source: publication PMC5711939, “The rumen microbiome: an underexplored resource for novel antimicrobial discovery” (NPJ Biofilms and Microbiomes, 2017)
